Experimental data as given in EP4745137A1 (Gluetacs Therapeutics (Shanghai) Co., Ltd., priority 2023, dated 2025).

Assays:
WEE1 = molecular target: T1, WEE1 (Homo sapiens, UniProt P30291+Q96SW2); experiment: Western-blot assay of substrate protein degradation in hPBMCs, WEE1; assay type: cell-based; details: 24 hours of compound treatment, compounds tested at 50 nM and 500 nM (concentration of the table not stated)
T1 construct: endogenous in cells; host or cells: hPBMCs (Milecell Biotechnologies)

IKZF1 = molecular target: T2, IKZF1 (Homo sapiens, UniProt Q13422+Q96SW2); experiment: Western-blot assay of substrate protein degradation in hPBMCs, IKZF1; assay type: cell-based; details: 24 hours of compound treatment, compounds tested at 50 nM and 500 nM (concentration of the table not stated)
T2 construct: endogenous in cells; host or cells: hPBMCs (Milecell Biotechnologies)

IKZF2 = molecular target: T3, IKZF2 (Homo sapiens, UniProt Q96SW2+Q9UKS7); experiment: Western-blot assay of substrate protein degradation in hPBMCs, IKZF2; assay type: cell-based; details: 24 hours of compound treatment, compounds tested at 50 nM and 500 nM (concentration of the table not stated)
T3 construct: endogenous in cells; host or cells: hPBMCs (Milecell Biotechnologies)

IKZF3 = molecular target: T4, IKZF3 (Homo sapiens, UniProt Q96SW2+Q9UKT9); experiment: Western-blot assay of substrate protein degradation in hPBMCs, IKZF3; assay type: cell-based; details: 24 hours of compound treatment, compounds tested at 50 nM and 500 nM (concentration of the table not stated)
T4 construct: endogenous in cells; host or cells: hPBMCs (Milecell Biotechnologies)

CK1α = molecular target: T5, CK1α (Homo sapiens, UniProt P48729+Q96SW2); experiment: Western-blot assay of substrate protein degradation in hPBMCs, CK1α; assay type: cell-based; details: 24 hours of compound treatment, compounds tested at 50 nM and 500 nM (concentration of the table not stated)
T5 construct: endogenous in cells; host or cells: hPBMCs (Milecell Biotechnologies)

GSPT1 = molecular target: T6, GSPT1 (Homo sapiens, UniProt P15170+Q96SW2); experiment: Western-blot assay of substrate protein degradation in hPBMCs, GSPT1; assay type: cell-based; details: 24 hours of compound treatment, compounds tested at 50 nM and 500 nM (concentration of the table not stated)
T6 construct: endogenous in cells; host or cells: hPBMCs (Milecell Biotechnologies)

[1] = molecular target: T7, human Cereblon WT GST-tagged protein (Homo sapiens, UniProt Q96SW2); experiment: CRBN-binding affinity by HTRF (CEREBLON BINDING kit); details: HTRF inhibitory activity, CEREBLON BINDING kit; read-out: HTRF IC50
T7 construct: purchased CISBIO 64BDCRBNPEH

TMD8 = experiment: Tumor cell proliferation inhibition (CellTiter-Meiluncell Luminescent Cell Viability Assay), TMD8; details: Homo sapiens, TMD8, 96 h, read-out: inhibitory activity (IC50, nM) against tumor cells proliferation, TMD8
[2] = tested on: Human acute T lymphocytic leukemia cells (Molt-4); experiment: Tumor cell proliferation inhibition (CellTiter-Meiluncell Luminescent Cell Viability Assay), Molt-4; details: MOLT-4, 96 h, read-out: inhibitory activity (IC50, nM) against tumor cells proliferation, Molt 4
NCI-H1975 = experiment: Tumor cell proliferation inhibition (CellTiter-Meiluncell Luminescent Cell Viability Assay), NCI-H1975; details: Homo sapiens, NCI-H1975, 96 h, read-out: inhibitory activity (IC50, nM) against tumor cells proliferation, H1975
[3] = tested on: Human breast cancer cells (MDA-MB-231); experiment: Tumor cell proliferation inhibition (CellTiter-Meiluncell Luminescent Cell Viability Assay), MDA-MB-231; details: MDA-MB-231, 96 h, read-out: inhibitory activity (IC50, nM) against tumor cells proliferation, MDA-MB-231

T6 sequence (P15170 whole entry): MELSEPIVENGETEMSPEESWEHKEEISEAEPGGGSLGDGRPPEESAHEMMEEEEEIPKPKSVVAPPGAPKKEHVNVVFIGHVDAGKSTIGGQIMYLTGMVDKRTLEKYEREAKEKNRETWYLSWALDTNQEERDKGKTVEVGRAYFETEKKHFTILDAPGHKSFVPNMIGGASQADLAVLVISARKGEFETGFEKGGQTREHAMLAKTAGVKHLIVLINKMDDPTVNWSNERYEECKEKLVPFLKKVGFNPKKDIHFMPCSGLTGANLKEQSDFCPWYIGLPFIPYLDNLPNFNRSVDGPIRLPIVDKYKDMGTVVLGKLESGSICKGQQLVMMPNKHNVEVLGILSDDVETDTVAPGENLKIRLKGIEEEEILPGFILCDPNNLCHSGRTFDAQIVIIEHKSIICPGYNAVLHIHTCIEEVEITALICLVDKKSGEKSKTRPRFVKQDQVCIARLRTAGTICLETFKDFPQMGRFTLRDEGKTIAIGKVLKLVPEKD
T6 sequence (Q96SW2 whole entry): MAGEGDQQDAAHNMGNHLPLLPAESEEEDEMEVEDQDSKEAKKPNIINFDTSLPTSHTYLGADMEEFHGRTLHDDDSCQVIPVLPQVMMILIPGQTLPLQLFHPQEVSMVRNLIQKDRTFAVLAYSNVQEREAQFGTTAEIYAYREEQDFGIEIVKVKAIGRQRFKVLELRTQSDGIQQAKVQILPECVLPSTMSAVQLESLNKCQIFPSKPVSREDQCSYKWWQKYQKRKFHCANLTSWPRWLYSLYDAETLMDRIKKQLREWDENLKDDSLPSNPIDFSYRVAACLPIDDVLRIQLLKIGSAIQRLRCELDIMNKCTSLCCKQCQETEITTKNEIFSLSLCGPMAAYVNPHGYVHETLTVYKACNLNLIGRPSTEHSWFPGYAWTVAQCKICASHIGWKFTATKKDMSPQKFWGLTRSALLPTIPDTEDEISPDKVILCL
T6 sequence (Q16531 whole entry partner): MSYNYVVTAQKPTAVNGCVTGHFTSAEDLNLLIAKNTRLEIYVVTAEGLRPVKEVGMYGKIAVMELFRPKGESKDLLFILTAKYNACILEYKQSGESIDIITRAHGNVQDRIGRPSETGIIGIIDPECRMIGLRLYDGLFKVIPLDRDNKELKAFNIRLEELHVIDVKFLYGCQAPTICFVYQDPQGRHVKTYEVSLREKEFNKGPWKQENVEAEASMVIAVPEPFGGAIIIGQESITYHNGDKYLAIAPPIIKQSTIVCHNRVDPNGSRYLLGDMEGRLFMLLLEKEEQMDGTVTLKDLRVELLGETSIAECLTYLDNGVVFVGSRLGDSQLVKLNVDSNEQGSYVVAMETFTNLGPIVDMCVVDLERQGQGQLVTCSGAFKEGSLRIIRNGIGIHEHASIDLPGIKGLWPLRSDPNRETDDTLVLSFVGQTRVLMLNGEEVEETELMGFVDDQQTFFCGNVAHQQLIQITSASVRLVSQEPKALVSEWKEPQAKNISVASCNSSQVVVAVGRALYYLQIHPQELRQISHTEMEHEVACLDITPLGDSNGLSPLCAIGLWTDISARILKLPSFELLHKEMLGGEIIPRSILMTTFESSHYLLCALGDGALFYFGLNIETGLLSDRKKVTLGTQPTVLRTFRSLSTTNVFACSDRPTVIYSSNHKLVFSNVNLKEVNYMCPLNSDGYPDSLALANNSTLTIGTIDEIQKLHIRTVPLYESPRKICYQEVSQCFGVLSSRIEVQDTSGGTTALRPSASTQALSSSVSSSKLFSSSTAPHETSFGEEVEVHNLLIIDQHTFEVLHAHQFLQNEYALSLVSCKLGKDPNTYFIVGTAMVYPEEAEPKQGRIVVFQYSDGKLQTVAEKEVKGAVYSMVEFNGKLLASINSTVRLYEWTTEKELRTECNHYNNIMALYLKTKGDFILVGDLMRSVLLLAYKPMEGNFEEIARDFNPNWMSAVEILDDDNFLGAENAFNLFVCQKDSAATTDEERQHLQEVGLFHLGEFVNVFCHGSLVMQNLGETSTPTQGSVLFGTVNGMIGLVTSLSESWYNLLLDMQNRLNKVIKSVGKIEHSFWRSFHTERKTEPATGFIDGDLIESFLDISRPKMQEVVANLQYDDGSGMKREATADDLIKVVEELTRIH
T2 sequence (Q13422 whole entry): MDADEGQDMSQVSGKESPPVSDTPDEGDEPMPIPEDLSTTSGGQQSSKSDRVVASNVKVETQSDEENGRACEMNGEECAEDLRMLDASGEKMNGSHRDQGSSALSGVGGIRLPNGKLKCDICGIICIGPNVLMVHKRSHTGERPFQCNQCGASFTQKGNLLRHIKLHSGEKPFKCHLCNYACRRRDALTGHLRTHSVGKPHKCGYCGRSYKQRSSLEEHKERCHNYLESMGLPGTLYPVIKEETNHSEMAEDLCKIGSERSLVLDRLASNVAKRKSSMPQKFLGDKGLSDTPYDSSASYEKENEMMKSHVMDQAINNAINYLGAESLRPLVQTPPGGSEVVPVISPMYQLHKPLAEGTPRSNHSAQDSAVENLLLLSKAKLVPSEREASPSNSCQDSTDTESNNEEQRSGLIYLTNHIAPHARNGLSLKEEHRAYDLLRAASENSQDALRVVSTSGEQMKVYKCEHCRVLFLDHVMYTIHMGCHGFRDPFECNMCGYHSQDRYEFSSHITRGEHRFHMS
T2 sequence (Q96SW2 whole entry): as the sequence (Q96SW2 whole entry) above
T2 sequence (Q16531 whole entry partner): as the sequence (Q16531 whole entry partner) above
T7 sequence (Q96SW2 whole entry): as the sequence (Q96SW2 whole entry) above
T3 sequence (Q9UKS7 whole entry): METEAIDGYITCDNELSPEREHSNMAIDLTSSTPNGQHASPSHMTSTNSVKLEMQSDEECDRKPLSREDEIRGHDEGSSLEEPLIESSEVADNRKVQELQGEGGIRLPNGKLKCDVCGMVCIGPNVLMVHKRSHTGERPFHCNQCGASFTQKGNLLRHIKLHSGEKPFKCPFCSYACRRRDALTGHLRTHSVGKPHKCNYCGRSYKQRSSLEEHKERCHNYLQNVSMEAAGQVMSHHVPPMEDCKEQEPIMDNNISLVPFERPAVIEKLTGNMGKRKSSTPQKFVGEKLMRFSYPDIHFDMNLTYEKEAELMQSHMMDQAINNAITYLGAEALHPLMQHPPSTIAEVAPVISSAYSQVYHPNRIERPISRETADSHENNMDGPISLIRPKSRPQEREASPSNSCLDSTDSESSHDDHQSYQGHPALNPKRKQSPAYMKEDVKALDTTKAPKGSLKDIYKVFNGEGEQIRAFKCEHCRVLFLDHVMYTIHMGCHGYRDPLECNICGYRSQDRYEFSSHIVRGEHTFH
T3 sequence (Q96SW2 whole entry): as the sequence (Q96SW2 whole entry) above
T3 sequence (Q16531 whole entry partner): as the sequence (Q16531 whole entry partner) above
T5 sequence (P48729 whole entry): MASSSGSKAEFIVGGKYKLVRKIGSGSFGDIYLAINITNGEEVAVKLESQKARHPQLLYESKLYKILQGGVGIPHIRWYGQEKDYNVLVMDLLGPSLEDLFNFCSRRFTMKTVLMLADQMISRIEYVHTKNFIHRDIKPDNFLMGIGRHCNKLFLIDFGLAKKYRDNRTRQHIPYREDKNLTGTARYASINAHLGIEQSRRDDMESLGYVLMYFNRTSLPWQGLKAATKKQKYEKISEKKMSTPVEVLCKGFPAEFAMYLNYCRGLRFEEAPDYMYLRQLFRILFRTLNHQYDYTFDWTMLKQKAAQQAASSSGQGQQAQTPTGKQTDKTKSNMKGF
T5 sequence (Q96SW2 whole entry): as the sequence (Q96SW2 whole entry) above
T5 sequence (Q16531 whole entry partner): as the sequence (Q16531 whole entry partner) above
T1 sequence (P30291 whole entry): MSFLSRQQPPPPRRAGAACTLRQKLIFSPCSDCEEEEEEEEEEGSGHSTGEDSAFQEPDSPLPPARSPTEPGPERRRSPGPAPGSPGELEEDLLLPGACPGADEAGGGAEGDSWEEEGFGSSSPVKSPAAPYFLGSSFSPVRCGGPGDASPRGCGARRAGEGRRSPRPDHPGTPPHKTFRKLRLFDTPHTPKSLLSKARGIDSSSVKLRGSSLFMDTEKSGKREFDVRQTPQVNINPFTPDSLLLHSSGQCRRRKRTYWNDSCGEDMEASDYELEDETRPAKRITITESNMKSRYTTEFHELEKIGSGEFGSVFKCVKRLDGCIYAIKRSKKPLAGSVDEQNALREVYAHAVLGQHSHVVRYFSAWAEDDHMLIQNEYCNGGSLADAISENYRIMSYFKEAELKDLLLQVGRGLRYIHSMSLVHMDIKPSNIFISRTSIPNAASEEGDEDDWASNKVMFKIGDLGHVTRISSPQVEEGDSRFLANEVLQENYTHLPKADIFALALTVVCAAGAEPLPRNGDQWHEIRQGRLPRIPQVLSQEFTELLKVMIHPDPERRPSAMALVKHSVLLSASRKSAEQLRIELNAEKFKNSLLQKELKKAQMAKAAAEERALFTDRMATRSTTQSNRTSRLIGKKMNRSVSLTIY
T1 sequence (Q96SW2 whole entry): as the sequence (Q96SW2 whole entry) above
T1 sequence (Q16531 whole entry partner): as the sequence (Q16531 whole entry partner) above

| Compound | Weel substrate protein remaining % (WEE1) | IKZF 1 substrate protein remaining % (IKZF1) | IKZF2 substrate protein remaining % (IKZF2) | IKZF3 substrate protein remaining % (IKZF3) | CK1a substrate protein remaining % (CK1α) | GSPT1 substrate protein remaining % (GSPT1) | IC50 [1] | IC50 (TMD8) | IC50 [2] | IC50 (NCI-H1975) | IC50 [3] |
| --- | --- | --- | --- | --- | --- | --- | --- | --- | --- | --- | --- |
| O=C1CCC(N2Cc3cc(CN4CCC(c5ccsc5)CC4)ccc3C2=O)C(=O)N1 (centres unmarked) [GT-04586, 3-(1-oxo-5-((4-(thiophen-3-yl)piperidin-1-yl)methyl)isoindolin-2-yl)piperidine-2,6-dione] | B (80%< substrate protein remaining %≤ 100%) | B (80%< substrate protein remaining %≤ 100%) | A (0% ≤ substrate protein remaining % ≤ 80%) | B (80%< substrate protein remaining %≤ 100%) | B (80%< substrate protein remaining %≤ 100%) | A (0% ≤ substrate protein remaining % ≤ 80%) | 500 to 1000 nM | 100 to 500 nM | 5 to 10 nM | 100 to 500 nM | 10 to 50 nM |
| Cc1cc(C2=CCN(Cc3ccc4c(c3)CN(C3CCC(=O)NC3=O)C4=O)CC2)cs1 (centres unmarked) [GT-04587, 3-(5-((4-(5-methylthiophen-3-yl)-3,6-dihydropyridin-1(2H)-yl)methyl)-1-oxoisoindolin-2-yl)piperidine-2,6-dione] | A (0% ≤ substrate protein remaining % ≤ 80%) | A (0% ≤ substrate protein remaining % ≤ 80%) | A (0% ≤ substrate protein remaining % ≤ 80%) | A (0% ≤ substrate protein remaining % ≤ 80%) | B (80%< substrate protein remaining %≤ 100%) | A (0% ≤ substrate protein remaining % ≤ 80%) | 500 to 1000 nM | 10 to 50 nM | 1 to 5 nM | 5 to 10 nM | 1 to 5 nM |
| Cc1cc(C2CCN(Cc3ccc4c(c3)CN(C3CCC(=O)NC3=O)C4=O)CC2)cs1 (centres unmarked) [GT-04588, 3-(5-((4-(5-methylthiophen-3-yl)piperidin-1-yl)methyl)-1-oxoisoindolin-2-yl)piperidine-2,6-dione] | B (80%< substrate protein remaining %≤ 100%) | B (80%< substrate protein remaining %≤ 100%) | A (0% ≤ substrate protein remaining % ≤ 80%) | B (80%< substrate protein remaining %≤ 100%) | B (80%< substrate protein remaining %≤ 100%) | A (0% ≤ substrate protein remaining % ≤ 80%) | 1000 to 1500 nM | 100 to 500 nM | 5 to 10 nM | 50 to 100 nM | 10 to 50 nM |
| O=C1CCC(N2Cc3cc(CN4CC=C(c5ccoc5)CC4)ccc3C2=O)C(=O)N1 (centres unmarked) [GT-04589, 3-(5-((4-(furan-3-yl)-3,6-dihydropyridin-1(2H)-yl)methyl)-1-oxoisoindolin-2-yl)piperidine-2,6-dione] | B (80%< substrate protein remaining %≤ 100%) | B (80%< substrate protein remaining %≤ 100%) | A (0% ≤ substrate protein remaining % ≤ 80%) | B (80%< substrate protein remaining %≤ 100%) | B (80%< substrate protein remaining %≤ 100%) | A (0% ≤ substrate protein remaining % ≤ 80%) | < 500 nM | 500 to 1000 nM | 10 to 50 nM | 100 to 500 nM | 100 to 500 nM |
| O=C1CCC(N2Cc3cc(CN4CC=C(c5c[nH]c6ncccc56)CC4)ccc3C2=O)C(=O)N1 (centres unmarked) [GT-04602, 3-(5-((4-(1H-pyrrolo[2,3-b]pyridin-3-yl)-3,6-dihydropyridin-1(2H)-yl)methyl)-1-oxoisoindolin-2-yl)piperidine-2,6-dione] | A (0% ≤ substrate protein remaining % ≤ 80%) | A (0% ≤ substrate protein remaining % ≤ 80%) | A (0% ≤ substrate protein remaining % ≤ 80%) | A (0% ≤ substrate protein remaining % ≤ 80%) | A (0% ≤ substrate protein remaining % ≤ 80%) | A (0% ≤ substrate protein remaining % ≤ 80%) | < 500 nM | 10 to 50 nM | 1 to 5 nM | 10 to 50 nM | 10 to 50 nM |
| O=C1CCC(N2Cc3cc(CN4CCN(c5cc(Cl)cc(Cl)c5)CC4)ccc3C2=O)C(=O)N1 (centres unmarked) [GT-04614, 3-(5-((4-(3,5-dichlorophenyl)piperazin-1-yl)methyl)-1-oxoisoindolin-2-yl)piperidine-2,6-dione] | A (0% ≤ substrate protein remaining % ≤ 80%) | B (80%< substrate protein remaining %≤ 100%) | B (80%< substrate protein remaining %≤ 100%) | B (80%< substrate protein remaining %≤ 100%) | B (80%< substrate protein remaining %≤ 100%) | A (0% ≤ substrate protein remaining % ≤ 80%) | 500 to 1000 nM | 10 to 50 nM | 1 to 5 nM | 10 to 50 nM | 10 to 50 nM |
| O=C1CCC(N2Cc3cc(CN4CCN(c5nccc(Cl)c5Br)CC4)ccc3C2=O)C(=O)N1 (centres unmarked) [GT-04615, 3-(5-((4-(3-bromo-4-chloropyridin-2-yl)piperazin-1-yl)methyl)-1-oxoisoindolin-2-yl)piperidine-2,6-dione] | A (0% ≤ substrate protein remaining % ≤ 80%) | A (0% ≤ substrate protein remaining % ≤ 80%) | A (0% ≤ substrate protein remaining % ≤ 80%) | A (0% ≤ substrate protein remaining % ≤ 80%) | A (0% ≤ substrate protein remaining % ≤ 80%) | A (0% ≤ substrate protein remaining % ≤ 80%) | 500 to 1000 nM | 500 to 1000 nM | 10 to 50 nM | 100 to 500 nM | 100 to 500 nM |
| O=C1CCC(N2Cc3cc(CN4CC=C(c5ccco5)CC4)ccc3C2=O)C(=O)N1 (centres unmarked) [GT-04617, 3-(5-((4-(furan-2-yl)-3,6-dihydropyridin-1(2H)-yl)methyl)-1-oxoisoindolin-2-yl)piperidine-2,6-dione] | A (0% ≤ substrate protein remaining % ≤ 80%) | A (0% ≤ substrate protein remaining % ≤ 80%) | A (0% ≤ substrate protein remaining % ≤ 80%) | A (0% ≤ substrate protein remaining % ≤ 80%) | B (80%< substrate protein remaining %≤ 100%) | A (0% ≤ substrate protein remaining % ≤ 80%) | < 500 nM | 100 to 500 nM | 5 to 10 nM | 100 to 500 nM | 10 to 50 nM |
| O=C1CCC(N2Cc3cc(CN4CC=C(c5cncc(Cl)c5)CC4)ccc3C2=O)C(=O)N1 (centres unmarked) [GT-04620, 3-(5-((5-chloro-3',6'-dihydro-[3,4'-bipyridin]-1'(2'H)-yl)methyl)-1-oxoisoindolin-2-yl)piperidine-2,6-dione] | A (0% ≤ substrate protein remaining % ≤ 80%) | A (0% ≤ substrate protein remaining % ≤ 80%) | A (0% ≤ substrate protein remaining % ≤ 80%) | A (0% ≤ substrate protein remaining % ≤ 80%) | B (80%< substrate protein remaining %≤ 100%) | A (0% ≤ substrate protein remaining % ≤ 80%) | 500 to 1000 nM | 10 to 50 nM | 1 to 5 nM | 10 to 50 nM | 10 to 50 nM |
| O=C1CCC(N2Cc3cc(CN4CCC(N5CCc6cc(F)ccc65)CC4)ccc3C2=O)C(=O)N1 (centres unmarked) [GT-04650, 3-(5-((4-(5-fluoroindolin-1-yl)piperidin-1-yl)methyl)-1-oxoisoindolin-2-yl)piperidine-2,6-dione] | A (0% ≤ substrate protein remaining % ≤ 80%) | A (0% ≤ substrate protein remaining % ≤ 80%) | A (0% ≤ substrate protein remaining % ≤ 80%) | A (0% ≤ substrate protein remaining % ≤ 80%) | B (80%< substrate protein remaining %≤ 100%) | A (0% ≤ substrate protein remaining % ≤ 80%) | < 500 nM | 100 to 500 nM | 10 to 50 nM | 50 to 100 nM | 50 to 100 nM |
